In series [1] the target is NOREPINEPHRINE TRANSPORTER (Homo sapiens, UniProt P23975). Put plainly: Safety off-target panel, binding. Particulars: single point. The source says: (§1) Table S9-S12 list all targets, their species, inhibition (%) and assay type for the experiments conducted in the
(§2) off-targets. […] The numbers for mean
(§3) inhibition (%) represent single point measurements.
(§4) off-targets. […] The numbers for
(§5) mean inhibition (%) represent single point measurements.

The next series addresses HISTAMINE H2 RECEPTOR (Homo sapiens, UniProt P25021). Put plainly: Safety off-target panel, binding. Particulars: single point.
Source text: as §1, §2, §3, §4, §5

Series [2] relates to cytochrome P450 isoenzymes (Cyp3A4, Cyp1A2, Cyp2B6, Cyp2C9, Cyp2D6, Cyp2C19, Cyp2C8). Put plainly: CYP inhibition, summary over seven isoenzymes. In kind it is in vitro ADME. To be noted: dose-response experiments up to 20 μM, result in words. How it is done:
(§6) SI11Absorption Distribution Metabolism and Excretion and Toxicity Data
(§7) To assess the drug-like characteristics of the newly designed PPAR modulators, a series of tests were conducted covering various aspects of absorption, distribution, metabolism, and excretion (ADME) properties. Specifically, these assessments included the parallel artificial membrane permeability assay (PAMPA) with permeation co- […]
(§8) efficients ([…]), LogD measurements, microsomal clearance, hepatocyte clearance, P-glycoprotein (Pgp) efflux ratio and binding and the unbound free fraction. Furthermore, the evaluation of inhibition po-tential against cytochrome P450 isoenzymes (CYP) proteins was investigated. For seven selected CYP proteins (i.e., Cyp3A4, Cyp1A2, Cyp2B6, Cyp2C9, Cyp2D6, Cyp2C19, and Cyp2C8) the half maximal inhibitory con-centration (IC50) was determined. (Table S15). […]
(§9) activity in the CYP assays was found.
(§10) Table S14: Absorption distribution metabolism and excretion (ADME) properties of compounds 1 and 2. […]
(§11) The values for microsomal clearance and CYP-inhibition represent single point measurements. […]
Molecule Enzyme Substrate IC50 (µM) […]

Series [3] can be described thus: Hepatocyte clearance, human. In kind it is in vitro ADME. Also on record: Hepatocyte clearance human: unit not given here. To be noted: for Hepatocyte clearance human: human hepatocytes, as printed in Table S14. How it is done:
Compounds 1–3 were characterized in a hybrid reporter gene assay for their agoniztic effect on human nuclear receptors PPARα/γ/δ, RXRα, FXRα, RARα in HEK293T cells. Compound 1 was tested in an isothermal titration calorimetry (ITC) assay to measure direct binding affinity to the ligand-binding domain of PPARγ. ADME properties were measured in standardized assays at Roche.
as §6, §7
efficients ([…]), LogD measurements, microsomal clearance, hepatocyte clearance, P-glycoprotein (Pgp) efflux ratio and binding and the unbound free fraction. […]
Table S14: Absorption distribution metabolism and excretion (ADME) properties of compounds 1 and 2. The […]
values for […], LogD, protein binding, P-glycoprotein (Pgp) efflux ratio and permeability, and hepato-cyte clearance are presented as the mean and standard deviation, with a sample size of N = 3, i.e., 3 technical replicates each. The values for microsomal clearance and CYP-inhibition represent single point measurements.
Microsomal clearance, human (µL·min−1·mg−1 protein) ≥10 ≥10 ≥10
Microsomal clearance, mouse (µL·min−1·mg−1 protein) ≥10 ≥10 ≥10
Microsomal clearance, rat (µL·min−1·mg−1 protein) ≥10 ≥10 ≥10
Protein binding human (% free fraction) (%) - 0.21 0.42
PgP Transport mouse apical efflux ratio - 1.6 1.2
PgP Transport mouse permeability (nm·sec−1) - 15 60 […]

Another series concerns the target CYP2C9 (Homo sapiens, UniProt P11712). Put plainly: CYP inhibition dose-response. It counts as in vitro ADME. Particulars: substrate DICLOFENAC
Here is the method: as §6, §7, §8, §9, §10, §11
(§12) Molecule Enzyme Substrate IC50 (µM)

For the next series, the target named is CYP2D6 (Homo sapiens, UniProt P10635). Put plainly: CYP inhibition dose-response. In kind it is in vitro ADME. To be noted: substrate DEXTROMETHORPHAN
CYP2D6, sequence (P10635 whole entry): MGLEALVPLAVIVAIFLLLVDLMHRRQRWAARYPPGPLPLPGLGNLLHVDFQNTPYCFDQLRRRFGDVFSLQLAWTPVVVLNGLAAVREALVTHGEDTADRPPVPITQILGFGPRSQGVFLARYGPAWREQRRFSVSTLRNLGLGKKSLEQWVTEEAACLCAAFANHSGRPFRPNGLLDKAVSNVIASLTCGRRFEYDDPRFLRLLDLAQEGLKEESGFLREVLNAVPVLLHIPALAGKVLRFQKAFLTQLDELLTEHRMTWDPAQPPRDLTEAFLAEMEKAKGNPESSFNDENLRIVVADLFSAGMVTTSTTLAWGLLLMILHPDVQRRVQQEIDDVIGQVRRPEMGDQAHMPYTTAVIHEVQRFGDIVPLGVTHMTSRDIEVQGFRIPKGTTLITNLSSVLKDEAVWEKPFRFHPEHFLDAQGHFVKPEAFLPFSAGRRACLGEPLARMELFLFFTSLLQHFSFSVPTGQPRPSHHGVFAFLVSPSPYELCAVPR
How it is done: as §6, §7, §8, §9, §10, §11, §12

The target of a further series is CYP2C8 (Homo sapiens, UniProt P10632). Put plainly: CYP inhibition dose-response. It counts as in vitro ADME. Particulars: substrate AMODIAQUINE
CYP2C8, sequence (P10632 whole entry): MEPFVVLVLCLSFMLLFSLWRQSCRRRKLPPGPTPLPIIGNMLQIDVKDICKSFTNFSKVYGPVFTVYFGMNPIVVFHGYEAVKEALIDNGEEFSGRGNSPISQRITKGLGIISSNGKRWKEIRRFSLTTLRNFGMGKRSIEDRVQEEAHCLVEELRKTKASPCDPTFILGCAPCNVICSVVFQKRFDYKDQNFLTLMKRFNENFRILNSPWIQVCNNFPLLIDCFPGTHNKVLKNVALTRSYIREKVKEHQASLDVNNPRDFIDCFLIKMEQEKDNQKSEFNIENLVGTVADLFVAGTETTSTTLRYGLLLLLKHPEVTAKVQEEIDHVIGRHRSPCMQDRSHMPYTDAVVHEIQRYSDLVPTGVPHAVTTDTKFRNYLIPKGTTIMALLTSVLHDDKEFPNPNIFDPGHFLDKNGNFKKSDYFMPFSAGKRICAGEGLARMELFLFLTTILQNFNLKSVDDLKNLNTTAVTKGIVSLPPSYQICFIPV
Here is the method:
as §6, §7, §8, §9, §10, §11, §12

In another series the target is CYP3A4 (Homo sapiens, UniProt P08684). Put plainly: CYP inhibition dose-response. To be noted: substrate MIDAZOLAM
CYP3A4, sequence (P08684 whole entry): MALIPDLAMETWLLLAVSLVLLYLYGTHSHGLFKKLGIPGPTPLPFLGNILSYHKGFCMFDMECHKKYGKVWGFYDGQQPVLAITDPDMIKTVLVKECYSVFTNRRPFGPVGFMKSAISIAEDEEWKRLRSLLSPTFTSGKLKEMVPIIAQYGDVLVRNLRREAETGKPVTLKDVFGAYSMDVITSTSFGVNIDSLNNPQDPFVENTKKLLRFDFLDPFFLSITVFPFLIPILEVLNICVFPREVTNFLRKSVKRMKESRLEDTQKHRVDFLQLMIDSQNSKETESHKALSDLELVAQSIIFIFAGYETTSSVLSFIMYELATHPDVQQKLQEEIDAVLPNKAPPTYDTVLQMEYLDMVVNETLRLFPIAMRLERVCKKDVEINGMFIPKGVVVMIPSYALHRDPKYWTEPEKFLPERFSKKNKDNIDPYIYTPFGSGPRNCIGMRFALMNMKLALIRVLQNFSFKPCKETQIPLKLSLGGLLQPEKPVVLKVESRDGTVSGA
It counts as in vitro ADME. How it is done:
as §6, §7, §8, §9, §10, §11, §12

Series [4] concerns GABA-A (BENZODIAZAPINE BINDING SITE). Put plainly: Safety off-target panel, binding. Also on record: species or system Rat. To be noted: 10 µM, single point.
Source text: as §1, §2, §3, §4, §5

Series [5] has as its system CA2+ CHANNEL (DILTIAZEM SITE). Put plainly: Safety off-target panel, binding. Also on record: species or system Rat. Particulars: 10 µM, single point.
Source text: as §1, §2, §3, §4, §5

Another series deals with PCP RECEPTOR
Put plainly: Safety off-target panel, binding. Also on record: species or system Rat. Particulars: 10 µM, single point.
Source text: as §1, §2, §3, §4, §5

“Also recorded” adds a separate entry of the source. Bounds are passed on as bounds.

UniProt P23975, sequence (P23975 whole entry): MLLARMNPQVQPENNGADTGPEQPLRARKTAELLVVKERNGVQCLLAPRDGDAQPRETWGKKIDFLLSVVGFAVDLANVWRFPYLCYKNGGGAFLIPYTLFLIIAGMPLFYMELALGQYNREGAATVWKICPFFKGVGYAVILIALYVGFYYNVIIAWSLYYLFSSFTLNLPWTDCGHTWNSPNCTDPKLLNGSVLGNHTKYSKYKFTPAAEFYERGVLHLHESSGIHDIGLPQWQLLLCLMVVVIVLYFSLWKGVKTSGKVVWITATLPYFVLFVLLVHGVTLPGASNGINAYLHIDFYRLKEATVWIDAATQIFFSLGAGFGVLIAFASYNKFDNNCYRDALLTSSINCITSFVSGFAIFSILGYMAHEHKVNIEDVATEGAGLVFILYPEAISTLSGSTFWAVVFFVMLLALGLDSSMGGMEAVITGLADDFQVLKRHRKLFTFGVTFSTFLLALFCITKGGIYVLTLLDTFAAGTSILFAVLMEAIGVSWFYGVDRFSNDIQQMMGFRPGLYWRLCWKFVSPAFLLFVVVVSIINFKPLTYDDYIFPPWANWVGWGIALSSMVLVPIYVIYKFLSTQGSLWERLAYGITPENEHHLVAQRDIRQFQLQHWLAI
HISTAMINE H2 RECEPTOR, sequence (P25021 whole entry): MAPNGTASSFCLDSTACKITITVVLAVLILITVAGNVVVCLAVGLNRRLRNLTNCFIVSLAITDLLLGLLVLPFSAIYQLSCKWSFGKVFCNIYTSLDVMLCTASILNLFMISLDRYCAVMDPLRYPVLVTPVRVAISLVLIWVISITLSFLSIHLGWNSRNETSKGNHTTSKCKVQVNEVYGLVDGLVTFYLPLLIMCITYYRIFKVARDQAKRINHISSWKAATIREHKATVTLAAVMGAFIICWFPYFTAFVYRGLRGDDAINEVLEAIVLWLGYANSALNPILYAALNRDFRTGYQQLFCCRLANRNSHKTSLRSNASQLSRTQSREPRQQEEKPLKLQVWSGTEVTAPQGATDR
CYP2C9, sequence (P11712 whole entry): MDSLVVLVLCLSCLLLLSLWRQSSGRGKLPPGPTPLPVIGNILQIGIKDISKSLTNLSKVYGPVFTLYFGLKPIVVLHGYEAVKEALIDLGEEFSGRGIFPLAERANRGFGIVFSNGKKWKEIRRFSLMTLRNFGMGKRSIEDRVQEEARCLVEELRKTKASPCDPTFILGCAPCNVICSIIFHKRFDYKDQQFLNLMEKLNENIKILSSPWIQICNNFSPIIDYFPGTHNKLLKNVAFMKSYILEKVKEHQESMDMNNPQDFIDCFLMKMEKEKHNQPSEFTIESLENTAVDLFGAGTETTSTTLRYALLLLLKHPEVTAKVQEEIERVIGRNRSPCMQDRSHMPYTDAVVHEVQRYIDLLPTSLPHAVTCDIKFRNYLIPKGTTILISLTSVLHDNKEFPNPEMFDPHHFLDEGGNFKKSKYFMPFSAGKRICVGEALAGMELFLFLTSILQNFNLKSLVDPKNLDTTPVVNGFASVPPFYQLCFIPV

For the compound `Cc1nnc(-c2ccc(OCCCOc3ccc(CCC(=O)O)c(F)c3)c(F)c2)s1` [Compound 1], the inhibition at 10 µM is -3.3% in series [1] and 10.9% on HISTAMINE H2 RECEPTOR. Besides, the “interaction with the seven pivotal cytochrome P450 isoenzymes” value in [2] is on record as “did not echibit any relevant; also recorded: did not exhibit any relevant activity”. In addition, the “clearance rate in human hepatocytes” value in [3] was 19 μL·min−1 10^6 cells−1. The Hepatocyte clearance human in [3] was 19. The IC50 on CYP2C9, against CYP2D6, against CYP2C8 and on CYP3A4 was greater than 20 µM each time. Also, the “Mean inhibition (%)” value in series [4] is reported as 12.5%; in series [5] it was -4.7%; in the series with PCP RECEPTOR, -12.0%.
Consider `COc1ccc(Oc2ccc3ncn(CCOc4ccc(CCC(=O)O)cc4)c3c2)cc1` [Compound 2], for which the inhibition at 10 µM was 0.7% in series [1] and -3.1% at HISTAMINE H2 RECEPTOR. In addition, the “interaction with the seven pivotal cytochrome P450 isoenzymes” value in [2] is listed as “did not echibit any relevant; also recorded: did not exhibit any relevant activity”. In addition, in series [3], the “clearance rate in human hepatocytes” value is reported as 19 μL·min−1 10^6 cells−1. The compound also gave a Hepatocyte clearance human in series [3] of 19. Besides, the IC50 against CYP2C9 was greater than 20 µM; on CYP2D6, greater than 20 µM; on CYP2C8 it was 1.75 µM; on CYP3A4, greater than 20 µM. For the same compound, the “Mean inhibition (%)” value was 57.8% in [4], -11.7% in [5] and 11.8% with PCP RECEPTOR.

For orientation: inhibition means the change of the read-out against control, counted positive when it falls. A word on the IC50: it is the concentration that gives 50% inhibition.

Source of the values: PMC11035696, “Prospective de novo drug design with deep interactome learning” (Nature Communications, 2024).
